Patent US20090018118A1, “HETEROCYCLIC COMPOUNDS” (priority 2005, published 2009)
Structures can show the parent of a compound that is named as a salt. Where two headings read alike, the source gives them in different places. Values belong to the compound of their own block, whether it stands above or below them.

Experiments:
[1] = tested on: cholesterol biosynthesis in HepG2 cells; assay: Metabolic labeling of HepG2 cells with [3H]acetate; radio-HPLC sterol profile (inhibition of cholesterol biosynthesis); assay type: cell-based, human; conditions: HepG2; for activity at 10 µM: Homo sapiens, 24 h, Table I, sterol level normalized to normal medium (1.00), mean of 4 experiments
Experimental: In accordance with the aims of the invention, the effect of the novel compounds on inhibition of cholesterol biosynthesis is assessed. An ex vivo method of metabolic labeling of immortal human hepatocytes is employed. The radioactively labeled early precursor of cholesterol [3H]acetate is added to cells with or without addition of an active new compound.
An ex vivo method of metabolic labeling of immortal human hepatocytes is employed. The radioactively labeled early precursor of cholesterol [3H]acetate is added to cells with or without addition of an active compound.
Cell culture incubation with potential inhibitors of cholesterol biosynthesis and statins Human hepatoma cell line (HepG2-ATCC No. HB-8065) is split in the recommended ratio (1:2-3) into 75 cm^2 cell flasks using two flasks per experimental condition. Cells are incubated at 37° C. with 5% CO2 in Dulbeco's modified Eagle medium (DMEM high (Sigma)) containing 5% calf serum (Sigma) and 1% L-glutamine (Sigma). After 24-hours-culturing in the growth medium, the medium is replaced with the one supplemented with 10 μM concentration of a LK compound, potential inhibitor of cholesterol biosynthesis. 10 μM solution of atorvastatin, inhibitor of HMG-CoA reductase, serves as a positive control.
After 24 hours the growth medium is changed and [^3H]acetate (NEN™ Life Science Products) added in a concentration of 40 μCi per ml of the medium (400 μCi per flask). After 4 hours cells are harvested using 2 ml of trypsin (Sigma) and the cell pellet is resuspended in 1 ml of distilled water. Cells are homogenized using the freeze and thaw method. From cell homogenate sterols are extracted and protein concentration determined using the Bio-Rad reagent.
Homogenates are transferred into 4 ml glass vial and sterols are extracted in 3 ml of extraction solution (75% n-heptane: 25% isopropanol (vol./vol.)) with ergosterol as an internal standard. For better extraction 100 μl of 0.3M NaH2PO4 (pH=1.0) is added. Closed vials are vigorously shaken (1800 rpm) for 2 hours. After extraction procedure vials are centrifuged (2000 g, 10 min) and the organic phase is transferred to fresh conical glass tubes. Extraction procedure is repeated using 1 ml of extraction solution for 15 min. Organic phases are pooled. Primary extracts are dried in vacuum centrifuge, redissolved in 3 ml of n-heptane, and incubated for 10 min at room temperature with mild shaking. After centrifugation (10 min, 2000 g) extracts are transferred into fresh glass tubes and stored in dark and cold.
The organic phase is dried, reconstituted in mobile phase for reversed phase HPLC separation and loaded onto a-HPLC column, Prism-RPN, 5 μm, 250×4,6 mm running in 100% acetonitrile at 1.00 ml/min at 40° C. temperature. Scintillation liquid is added after UV detection at 30 ml/h, at room temperature, to evaluate tritium labeled sterols on a radio detector.
Sterols are determined by comparing the eluted peaks with runs of commercial standards of lanosterol, ergosterol, desmosterol, zymosterol, 7-dehydrocholesterol, lathosterol and cholesterol or laboratory standards (FF-MAS-4,4-Dimethylcholesta-8(9),14,24-triene-3β-ol- and T-MAS-4,4-Dimethylcholesta8(9),24,diene-3,6-ol, Laboratory of Reproductive Biology, The Juliane Marie Center for Children, Women and Reproduction, University Hospital of Copenhagen, DK-2100 Copenhagen, Denmark). Results were normalized on ergosterol quantity and protein concentration. Results are presented as a mean from 4 separated experiments.
The influence of a 10 μM solution of novel LK-substances on cholesterol biosynthesis in the assay on HepG2 cells is presented in Table I. Compounds are arranged according to the building blocks, three of them are 2-pyridineethanols, 2-pyridineethylpiperazines and pyridinemethylpiperazines.
Normal medium pertains to cell cultures without a compound of the invention. Its sterol levels were used for normalization. 10 μM solution of atorvastatin serves as a positive control.

[2] = Table II (arranged by sterol profile), 10 μM compound, normalized to normal medium (1.00)

- melting point: 126 to 129 °C
SMILES: OC(CN1CCN(CCc2ccccc2)CC1)c1ccc2ccccc2c1 (stereo not shown) [LK-9111B, 1-(Naphthalen-2-yl)-2-(4-phenethylpiperazin-1-yl)ethanol]
- FF-MAS accumulation (in words) ([1]; 10 μM): notably accumulate FF-MAS
- lanosterol level (in words) ([1]; 10 μM, relative to normal medium): indicates lanosterol accumulation
- activity at 10 µM ([1]; 10 μM compound, read-out: FF-MAS): 901%
- activity at 10 µM ([1]; 10 μM compound, read-out: cholesterol): 0%
- activity at 10 µM ([1]; 10 μM compound, read-out: desmosterol): 0%
- activity at 10 µM ([1]; 10 μM compound, read-out: lanosterol): 197%
- activity at 10 µM ([1]; 10 μM compound, read-out: lathosterol): 46%
- activity at 10 µM ([1]; 10 μM compound, read-out: zymosterol+7-dehydrocholesterol): 171%
- FF-MAS [1, 2]: 9.01
- cholesterol [1, 2]: 0.00
- desmosterol [1, 2]: 0.00
- lanosterol [1, 2]: 1.97
- lathosterol [1, 2]: 0.46
- zymosterol+7-dehydrocholesterol [1, 2]: 1.71

- melting point: 256 to 259 °C
SMILES: Fc1ccc(CCN2CCN(CCc3ccncc3)CC2)cc1F (as salt: hydrobromid) [LK-9131, 1-(3,4-di-Fluorophenethyl)-4-(2-(pyridin-4-yl)ethyl)piperazine trihydrobromide]
